From US6875451B2, “Compositions and methods for the treatment of primary and metastatic neoplastic diseases using arsenic compounds” (PolaRx Biopharmaceuticals Inc., priority 1997, dated 2005)

Assays:
Format in all cases: cell-based
PC-3 = assay: SRB growth assay, 2 days exposure, prostate cancer
Description: (§1) Arsenic trioxide (1 mg/ml, 10 mg/ampoule, manufactured by Taylor Pharmaceuticals, Decatur, Ill.) was tested at five concentrations each at 10-fold dilutions, i.e., 10^−5, 10^−6, 10^−7, 10^−8 and 10^−9 μg/ml.
(§2) The in vitro tests were performed by incubating the test cells in the presence of the indicated concentration of arsenic trioxide under standard culture conditions for a designated period of time, which is followed by a sulforhodamine B (SRB) protein assay to estimate cell viability or growth. The cell lines are organized into subpanels according to the origin of the cell lines, e.g., leukemia, breast cancer, etc. A description of the cell lines and method of testing is described in Monk et al. (1997, Anticancer Drug Des. 12:533-41) and Weinstein et al., (1997, Science 275:343-9), which are incorporated herein in their entirety.
(§3) The measurement of an effect is expressed in Percentage Growth (PG). The measured effect of the compound on a cell line is calculated according to one or the other of the following two expressions: If (Mean ODtest−Mean ODzero)≧0. then PG=100×(Mean ODtest−Mean ODzero)/(Mean ODctrl−Mean ODzero) If (Mean ODtest−Mean ODzero)<0. then PG=100×(Mean ODtest−Mean ODzero)/(Mean ODzero where: • Mean ODzero=the average of optical density measurements of SRB-derived color just before exposure of cells to the test compounds; • Mean ODtest=the average of optical density measurements of SRB-derived color after exposure of cells to the test compound for a designated period of time; and • Mean ODctrl=the average of optical density measurements of SRB-derived color after with no exposure of cells to the test compound for a designated period of time
(§4) The first two columns describe the subpanel (e.g., leukemia) and cell line (e.g., CCRF-CEM) involved. The next two columns list the Mean ODzero and Mean ODctrl; the next five columns list the Mean ODtest for each of five different concentrations. Each concentration is expressed as the log10 (molar or μg/ml). The next five columns list the calculated PGs for each concentration. The response parameters GI50, TGI and LC50 are interpolated values representing the concentrations at which the PG is +50, 0, and −50, respectively. Sometimes these response parameters cannot be obtained by interpolation. If, for instance, all of the PGs in a given row exceed +50, then none of the three parameters can be obtained by interpolation. In such a case, the value given for each response parameter is the highest concentration tested and is preceded by a “>” sign. This practice is extended similarly to the other possible situations where a response parameter cannot be obtained by interpolation.
(§5) In the first set, the cells from 56 different cancer cell lines were exposed to five concentrations of arsenic trioxide continuously for two days prior to performing the SRB assay. In the second set, the cells from 50 different cell lines (a subset of the first 56 cell lines, plus the renal cancer cell line 786-0) were exposed continuously for six days prior to the SRB assay.

DU-145 = assay: SRB growth assay, 2 days exposure, prostate cancer
Description: as §1, §2, §3, §4, §5

S12C = assay: SRB growth assay, 6 days exposure, renal cancer
Description: as §1, §2, §3, §4, §5

786-O = assay: SRB growth assay, 6 days exposure, renal cancer; details: 786-0, 6 days
Description: as §1, §2, §3, §4, §5

RXF 393 = assay: SRB growth assay, 6 days exposure, renal cancer; details: RXF393, 6 days
Description: as §1, §2, §3, §4, §5

[1] = system: 56 different cancer cell lines; assay: NCI cancer cell line panel, SRB assay, first set, 2 days exposure (whole panel, mean graph)
Description: as §1, §2, §3
The first two columns describe the subpanel (e.g., leukemia) and cell line (e.g., CCRF-CEM) involved. The next two columns list the Mean ODzero and Mean ODctrl; the next five columns list the Mean ODtest for each of five different concentrations. Each concentration is expressed as the log10 (molar or μg/ml). The next five columns list the calculated PGs for each concentration. […]

SK-MEL-28 = assay: SRB growth assay, 6 days exposure, melanoma; details: SK-MEL-28, 6 days
Description: as §1, §2, §3, §4, §5

LOX IMVI = assay: SRB growth assay, 6 days exposure, melanoma; details: LOX 1MVI
Description: as §1, §2, §3, §4, §5

Q: With arsenic trioxide as the substance, how does the TGI (PC-3) read?
A: Its TGI is 0.011 ng/mL.

Q: What about the “Percent Growth” value (PC-3; log10 conc −4.9) of the same substance?
A: The value was −4%.

Q: And the “Percent Growth” value (PC-3; log10 conc −5.9)?
A: Its value is 67%.

Q: What about the “Percent Growth” value (PC-3; log10 conc −6.9) of the same substance?
A: Its value is 88%.

Q: What about the “Percent Growth” value (PC-3; log10 conc −7.9) of the same substance?
A: The value was 91%.

Q: What about the “Percent Growth” value (PC-3; log10 conc −8.9) of the same substance?
A: The value was 103%.

Q: What about the TGI (DU-145) of the same substance?
A: Its TGI is over 0.0126 ng/mL.

Q: And the “Percent Growth” value (DU-145; log10 conc −4.9)?
A: Its value is 64%.

Q: And the “Percent Growth” value (DU-145; log10 conc −5.9)?
A: Its value is 96%.

Q: What about the “Percent Growth” value (DU-145; log10 conc −6.9) of the same substance?
A: The value was 106%.

Q: And the “Percent Growth” value (DU-145; log10 conc −7.9)?
A: The value was 131%.

Q: What about the “Percent Growth” value (DU-145; log10 conc −8.9) of the same substance?
A: Its value is 91%.

Q: And the LC50 (concentration killing 50% of cells) (S12C)?
A: Its LC50 (concentration killing 50% of cells) is over 12.6 µM.

Q: And the TGI (S12C)?
A: Its TGI is 5.67E−06.

Q: What about the “Mean Optical Densities” value (S12C; Log 10 Concentration −4.9) of the same substance?
A: Its value is 0.013.

Q: And the “Percent Growth” value (S12C; Log 10 Concentration −4.9)?
A: Its value is −46%.

Q: What about the “Mean Optical Densities” value (S12C; Log 10 Concentration −5.9) of the same substance?
A: Its value is 0.829.

Q: What about the “Percent Growth” value (S12C; Log 10 Concentration −5.9) of the same substance?
A: Its value is 86%.

Q: And the “Mean Optical Densities” value (S12C; Log 10 Concentration −6.9)?
A: Its value is 1.113.

Q: What about the “Percent Growth” value (S12C; Log 10 Concentration −6.9) of the same substance?
A: The value was 117%.

Q: And the “Mean Optical Densities” value (S12C; Log 10 Concentration −7.9)?
A: The value was 1.141.

Q: And the “Percent Growth” value (S12C; Log 10 Concentration −7.9)?
A: Its value is 120%.

Q: What about the “Mean Optical Densities” value (S12C; Log 10 Concentration −8.9) of the same substance?
A: The value was 0.882.

Q: What about the “Percent Growth” value (S12C; Log 10 Concentration −8.9) of the same substance?
A: Its value is 92%.

Q: And the TGI (786-O)?
A: The TGI was 2.77E−06.

Q: What about the “Mean Optical Densities” value (786-O; Log 10 Concentration −4.9) of the same substance?
A: Its value is −0.003.

Q: What about the “Percent Growth” value (786-O; Log 10 Concentration −4.9) of the same substance?
A: The value was −100%.

Q: What about the “Mean Optical Densities” value (786-O; Log 10 Concentration −5.9) of the same substance?
A: The value was 0.832.

Q: What about the “Percent Growth” value (786-O; Log 10 Concentration −5.9) of the same substance?
A: The value was 52%.

Q: And the “Mean Optical Densities” value (786-O; Log 10 Concentration −6.9)?
A: Its value is 1.786.

Q: And the “Percent Growth” value (786-O; Log 10 Concentration −6.9)?
A: Its value is 113%.

Q: And the “Mean Optical Densities” value (786-O; Log 10 Concentration −7.9)?
A: The value was 1.821.

Q: What about the “Percent Growth” value (786-O; Log 10 Concentration −7.9) of the same substance?
A: The value was 116%.

Q: What about the “Mean Optical Densities” value (786-O; Log 10 Concentration −8.9) of the same substance?
A: The value was 1.582.

Q: And the “Percent Growth” value (786-O; Log 10 Concentration −8.9)?
A: The value was 100%.

Q: And the TGI (RXF 393)?
A: Its TGI is 2.96E−06.

Q: What about the “Mean Optical Densities” value (RXF 393; Log 10 Concentration −4.9) of the same substance?
A: Its value is 0.017.

Q: And the “Percent Growth” value (RXF 393; Log 10 Concentration −4.9)?
A: Its value is −91%.

Q: And the “Mean Optical Densities” value (RXF 393; Log 10 Concentration −5.9)?
A: The value was 0.909.

Q: What about the “Percent Growth” value (RXF 393; Log 10 Concentration −5.9) of the same substance?
A: The value was 54%.

Q: What about the “Mean Optical Densities” value (RXF 393; Log 10 Concentration −6.9) of the same substance?
A: Its value is 1.727.

Q: And the “Percent Growth” value (RXF 393; Log 10 Concentration −6.9)?
A: Its value is 116%.

Q: What about the “Mean Optical Densities” value (RXF 393; Log 10 Concentration −7.9) of the same substance?
A: Its value is 1.301.

Q: And the “Percent Growth” value (RXF 393; Log 10 Concentration −7.9)?
A: Its value is 84%.

Q: What about the “Mean Optical Densities” value (RXF 393; Log 10 Concentration −8.9) of the same substance?
A: Its value is 1.327.

Q: What about the “Percent Growth” value (RXF 393; Log 10 Concentration −8.9) of the same substance?
A: Its value is 86%.

Q: And the reducing cell growth ([1]; first set of tests, 2 days exposure, all cell lines tested)?
A: Its reducing cell growth is “effective in reducing cell growth against almost all the cell lines tested”.

Q: What about the reduction of growth ([1]; leukemic, melanoma and ovarian cancer cell lines, 2 days exposure) of the same substance?
A: Its reduction of growth is “more than 50%”.

Q: And the “sensitivity relative to all the cell lines tested (mean graph, FIG. 2)” value ([1]; most leukemic and melanoma cell lines, SNB-75, U251, PC-3, A498, CAKI-1, SN12C, NCI-H522, 2 days)?
A: Its value is “especially sensitive”.

Q: And the TGI (SK-MEL-28)?
A: The TGI was 1.86E−06.

Q: And the “Percent Growth” value (SK-MEL-28; Log 10 Concentration −4.9)?
A: The value was −100%.

Q: And the “Mean Optical Densities” value (SK-MEL-28; Log 10 Concentration −5.9)?
A: Its value is 0.488.

Q: And the “Percent Growth” value (SK-MEL-28; Log 10 Concentration −5.9)?
A: The value was 20%.

Q: What about the “Mean Optical Densities” value (SK-MEL-28; Log 10 Concentration −6.9) of the same substance?
A: The value was 1.797.

Q: And the “Percent Growth” value (SK-MEL-28; Log 10 Concentration −6.9)?
A: Its value is 88%.

Q: And the “Mean Optical Densities” value (SK-MEL-28; Log 10 Concentration −7.9)?
A: The value was 1.906.

Q: What about the “Percent Growth” value (SK-MEL-28; Log 10 Concentration −7.9) of the same substance?
A: Its value is 94%.

Q: What about the “Mean Optical Densities” value (SK-MEL-28; Log 10 Concentration −8.9) of the same substance?
A: Its value is 2.012.

Q: What about the “Percent Growth” value (SK-MEL-28; Log 10 Concentration −8.9) of the same substance?
A: The value was 99%.

Q: And the TGI (LOX IMVI)?
A: Its TGI is 1.32E−07.

Q: What about the “Mean Optical Densities” value (LOX IMVI; Log 10 Concentration −4.9) of the same substance?
A: The value was −0.001.

Q: What about the “Percent Growth” value (LOX IMVI; Log 10 Concentration −4.9) of the same substance?
A: The value was −100%.

Q: And the “Mean Optical Densities” value (LOX IMVI; Log 10 Concentration −5.9)?
A: Its value is 0.002.

Q: And the “Percent Growth” value (LOX IMVI; Log 10 Concentration −5.9)?
A: Its value is −88%.

Q: And the “Mean Optical Densities” value (LOX IMVI; Log 10 Concentration −6.9)?
A: The value was 0.053.

Q: And the “Percent Growth” value (LOX IMVI; Log 10 Concentration −6.9)?
A: The value was 2%.

Q: What about the “Mean Optical Densities” value (LOX IMVI; Log 10 Concentration −7.9) of the same substance?
A: The value was 1.666.

Q: And the “Percent Growth” value (LOX IMVI; Log 10 Concentration −7.9)?
A: The value was 77%.

Q: What about the “Mean Optical Densities” value (LOX IMVI; Log 10 Concentration −8.9) of the same substance?
A: The value was 2.000.

Q: And the “Percent Growth” value (LOX IMVI; Log 10 Concentration −8.9)?
A: Its value is 93%.
